Literature values as cited in patent US6465436B2, “Method for treating alcohol intoxication and alcohol abuse” (McLean Hospital, priority 2000, dated 2002).

Columns and labels:
[1] = for alcohol consumption suppressing activity of herbal medicines derived from Pueraria lobata (fractionation studies): U.S. Pat. No. 5,783,189
[2] = tested on: Syrian Golden hamsters
[3] = target: T1, human ALDH-1 (Homo sapiens, UniProt P05091)
T1 sequence (P05091 18-517): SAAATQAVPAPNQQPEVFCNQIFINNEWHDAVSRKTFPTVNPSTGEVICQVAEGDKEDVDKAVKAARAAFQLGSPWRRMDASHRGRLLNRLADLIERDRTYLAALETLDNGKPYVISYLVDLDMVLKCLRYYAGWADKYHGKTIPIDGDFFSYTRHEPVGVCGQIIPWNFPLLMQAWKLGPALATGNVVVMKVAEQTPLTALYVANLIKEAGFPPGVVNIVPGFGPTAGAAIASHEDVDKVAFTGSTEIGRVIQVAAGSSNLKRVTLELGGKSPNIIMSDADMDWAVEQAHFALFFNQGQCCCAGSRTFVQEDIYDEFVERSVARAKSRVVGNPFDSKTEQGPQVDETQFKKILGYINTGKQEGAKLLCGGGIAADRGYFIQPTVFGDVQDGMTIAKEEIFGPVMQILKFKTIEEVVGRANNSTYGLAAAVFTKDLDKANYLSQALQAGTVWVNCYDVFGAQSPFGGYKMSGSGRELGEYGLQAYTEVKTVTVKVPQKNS

[4] = in vivo
[5] = tested on: ALDH

SMILES | alcohol consumption suppressing activity of herbal medicines derived from Pueraria lobata (fractionation studies) [1] | alcohol intake [2] | human ALDH-1 inhibition [3] | blood alcohol levels [4] | sleep time induced by alcohol [4] | ALDH inhibition [5] | activity in suppressing alcohol intake relative to daidzin ([1]; in vivo)
COc1cc(-c2coc3c([C@@H]4O[C@H](CO)[C@@H](O)[C@H](O)[C@H]4O)c(O)ccc3c2=O)ccc1O [3′-methoxypuerarin] | primarily responsible for the alcohol consumption suppressing activity | – | – | – | – | – | –
O=c1c(-c2ccc(O)cc2)coc2cc(O)ccc12 [daidzein] | primarily responsible for the alcohol consumption suppressing activity | suppressed alcohol intake | potent human ALDH-1 inhibitors | decreases blood alcohol levels | shortens sleep time | – | –
O=c1c(-c2ccc(O)cc2)coc2cc(O[C@@H]3O[C@H](CO)[C@@H](O)[C@H](O)[C@H]3O)ccc12 [daidzin] | primarily responsible for the alcohol consumption suppressing activity | suppressed alcohol intake | potent human ALDH-1 inhibitors | – | – | – | –
O=c1c(-c2ccc(O)cc2)coc2c([C@@H]3O[C@H](CO[C@@H]4OC[C@](O)(CO)[C@H]4O)[C@@H](O)[C@H](O)[C@H]3O)c(O)ccc12 [mirificin] | primarily responsible for the alcohol consumption suppressing activity | – | – | – | – | – | –
O=c1c(-c2ccc(O)cc2)coc2c([C@@H]3O[C@H](CO)[C@@H](O)[C@H](O)[C@H]3O)c(O)ccc12 [puerarin] | primarily responsible for the alcohol consumption suppressing activity | – | – | – | – | not an ALDH inhibitor | slightly less active than daidzin
